Literature values, collected in paper PMC10572743 (International Journal of Molecular Sciences, 2023).

System: TNF-α production in PBMC stimulated with LPS
Settings: previous research; read-out: PMBC-LPS/TNFα; cited from earlier work

Row | SMILES | IC50 [µM]
1 | COc1ccc2ccc3nnn(CCCCO)c3c2c1 [B] | 7.9
2 | COc1ccc(Cn2nnc3ccc4ccc(OC)cc4c32)cc1 [C] | 2.2
